Data taken from patent US20100183600A1, “RAF Inhibitors and Their Uses” (ARQULE, INC., priority 2008, published 2010).

How the values were obtained:
Assay in all cases: Cell growth inhibition assay (MTS)
Assay type in all cases: cell-based
[1] = tested on: NTERA-2 c1. D1; details: Homo sapiens, NTERA2; NTERA-2 c1. D1, testis pluripotent embryonal carcinoma
Procedure: (§1) Compounds of the present invention have been tested for activity against a variety of cancer cell lines. The ability of compounds to inhibit cell growth in this assay is correlated with the reduction of dehydrogenase enzyme activity found in metabolically active cells.
(§2) Materials: A large variety of cancer cells from ATCC were maintained at 37° C., 5% CO2 in DMEM media supplemented with 10% fetal bovine serum, penicillin/streptomycin and fungizone (Invitrogen). NCM460 (Incell), a normal colon epithelial cell line, and human mammary epithelial cells (Cambrex) were maintained at 37° C., 5% CO2 in DMEM and HEBM media (Cambrex), respectively.
(§3) Methods: Test compounds were dissolved and diluted to 300× in DMSO then diluted 1:40 in DMEM. Cells were seeded into 96-well tissue culture plates at 1-5×10^3 per well and cultured at 37° C. for 24 h. Cells were incubated with test compounds for 72 hours followed by incubation with tetrazolium compound (3-(4,5-dimethylthiazol-2-yl)-5-(3-carboxymethoxyphenyl)-2-(4-sulfophenyl)-2H-tetrazolium, inner salt; MTS) and the electron coupling reagent, phenazine methosulfate (PMS) for 4 hr. […] The measurement of the absorbance of the formazan was assessed using an ENVISION™ (Perkin Elmer) microplate reader at 492 nm. The calculated IC50 value is the concentration of the test compound that causes a 50% decrease in the absorbance.

[2] = tested on: PLC/PRF/5; details: Homo sapiens; PLC/PRF/5, liver
Procedure: as §1, §2, §3

[3] = tested on: RT112; details: RT-112; RT112, human urinary bladder cell carcinoma
Procedure: as §1, §2, §3

[4] = tested on: A427; details: Homo sapiens, A-427; A427, lung Carcinoma
Procedure: as §1, §2, §3

[5] = tested on: CALU-6; details: Homo sapiens; CALU-6, lung
Procedure: as §1, §2, §3

[6] = tested on: AN3CA; details: Homo sapiens, AN3-CA, endometrial
Procedure: as §1, §2, §3

[7] = tested on: SK-HEP-1; details: Homo sapiens, SK-HEP1; SK-HEP-1, liver adenocarcinoma
Procedure: as §1, §2, §3

[8] = tested on: SW620; details: Homo sapiens, SW-620; SW620, colorectal adenocarcinoma
Procedure: as §1, §2, §3

[9] = tested on: HCT-15; details: Homo sapiens; HCT-15, colon
Procedure: as §1, §2, §3

[10] = tested on: NCI-H661; details: Homo sapiens; NCI-H661, large cell lung carcinoma
Procedure: as §1, §2, §3

[11] = tested on: NCI-H520; details: Homo sapiens; NCI-H520, squamous cell lung carcinoma
Procedure: as §1, §2, §3

[12] = tested on: CAKI-1; details: Homo sapiens; CAKI-1, kidney
Procedure: as §1, §2, §3

[13] = tested on: MCF-7; details: Homo sapiens, MCF7; MCF-7, breast adenocarcinoma
Procedure: as §1, §2, §3

[14] = tested on: LS174T; details: Homo sapiens, colorectal carcinoma
Procedure: as §1, §2, §3

[15] = tested on: SW780; details: Homo sapiens; SW780, bladder
Procedure: as §1, §2, §3

[16] = tested on: U937; details: Homo sapiens, U-937; U937, monocyte histocytic lymphoma
Procedure: as §1, §2, §3

[17] = tested on: COLO-205; details: Homo sapiens; COLO-205, colon
Procedure: as §1, §2, §3

[18] = tested on: HT29; details: Homo sapiens, HT-29; HT29, colorectal carcinoma
Procedure: as §1, §2, §3

[19] = tested on: HPAF-II; details: Homo sapiens, pancreas
Procedure: as §1, §2, §3

[20] = tested on: HEP-G2; details: Homo sapiens, HepG2; HEP-G2, hepatocellular carcinoma
Procedure: as §1, §2, §3

[21] = tested on: NCI-H1299; details: Homo sapiens; NCI-H1299, non-small cell lung carcinoma
Procedure: as §1, §2, §3

[22] = tested on: THP-1; details: Homo sapiens; THP-1, acute monocytic leukemia
Procedure: as §1, §2, §3

[23] = tested on: MKN-45; details: Homo sapiens; MKN-45, stomach
Procedure: as §1, §2, §3

[24] = tested on: 786-O; details: Homo sapiens, 786-0, kidney
Procedure: as §1, §2, §3

[25] = tested on: K562; details: Homo sapiens; K562, CML
Procedure: as §1, §2, §3

[26] = tested on: WIDR; details: Homo sapiens, colorectal adenocarcinoma
Procedure: as §1, §2, §3

[27] = tested on: HEP-3B; details: Homo sapiens, Hep3B, liver
Procedure: as §1, §2, §3

Compound `Cn1ccc(S(=O)(=O)N2CCC[C@@H](Nc3nccc(-c4c(-c5cccc(OCOP(=O)(O)O)c5)nc5occn45)n3)C2)n1` [Compound 19, (R)-(3-(5-(2-(1-(1-methyl-1H-pyrazol-3-ylsulfonyl)piperidin-3-ylamino)pyrimidin-4-yl)imidazo[2,1-b]oxazol-6-yl)phenoxy)methyl dihydrogen phosphate] has a GI50 [1] of 5.32 µM, a GI50 [2] of 13.6 µM and a GI50 [3] of 1.92 µM. For the same compound, the GI50 [4] was 3.23 µM, the GI50 [5] was 2.97 µM and the GI50 [6] was 20.1 µM. It also gave a GI50 [7] of 7.22 µM, a GI50 [8] of 22.8 µM and a GI50 [9] of 23.2 µM. The GI50 [10] was 16.2 µM, the GI50 [11] was 20.2 µM and the GI50 [12] was 30.3 µM. It also gave a GI50 [13] of 12.5 µM, a GI50 [14] of 5.9 µM and a GI50 [15] of 9.1 µM. The GI50 [16] was 20.2 µM, the GI50 [17] was 0.25 µM and the GI50 [18] was 5.03 µM. The GI50 [19] was 5.78 µM, the GI50 [20] was 1.38 µM and the GI50 [21] was 6.38 µM. It also gave a GI50 [22] of 10.3 µM, a GI50 [23] of 21.4 µM and a GI50 [24] of 18.2 µM. It also gave a GI50 [25] of 9.86 µM, a GI50 [26] of 20.2 µM and a GI50 [27] of 3.16 µM.
